Experimental data: patent publication US6380218B1, “Nicotinamide derivatives” (Pfizer Inc, priority 1997, dated 2002)

| Compound | melting point |
| --- | --- |
| O=C(NCc1ccccn1)c1cccnc1Oc1cccnc1 [Example 181, N-Pyridin-2-ylmethyl-2-(pyridin-3-yloxy)-nicotinamide] | 118 to 119 °C |
| O=C(NCc1ccc2c(c1)OCO2)c1cccnc1Oc1cccnc1 [Example 182, N-Benzo[1,3]dioxol-5-ylmethyl-2-(pyridin-3-yloxy)-nicotinamide] | 130 to 131 °C |
| O=C(NCc1ccccc1Cl)c1cccnc1Oc1cccc(C(F)(F)F)c1 [Example 184, N-(2-Chloro-benzyl)-2-(3-trifluoromethyl-phenoxy)-nicotinamide] | 88 to 90 °C |
| O=C(Cc1ccccc1Cl)Nc1cccnc1Oc1cccnc1 [Example 185, 2-(2-Chloro-phenyl)-N-[2-(pyridin-3-yloxy)-pyridin-3-yl]-acetamide] | 137 to 139 °C |
| CC(=O)c1ccc(CC(=O)Nc2cccnc2Oc2cccnc2)cc1 [Example 186, 2-(4-Acetyl-phenyl)-N-[2-(pyridin-3-yloxy)-pyridin-3-yl]-acetamide] | 110 to 112 °C |
| CC(C)(O)c1ccc(CNC(=O)c2cccnc2Oc2cccc(Cl)c2)cc1 [Example 187, 2-(3-Chloro-phenoxy)-N-[4-(1-hydroxy-1-methyl-ethyl)-benzyl]-nicotinamide] | 57 to 59 °C |
| O=C(NCc1ccccc1Cl)c1cccnc1Oc1cccc(Cl)c1 [Example 189, N-(2-Chloro-benzyl)-2-(3-chloro-phenoxy)-nicotinamide] | 126 to 128 °C |
| NS(=O)(=O)c1ccc(CNC(=O)c2cccnc2Oc2ccc(F)cc2)cc1 [Example 193, 2-(4-Fluoro-phenoxy)-N-(4-sulfamoyl-benzyl)-nicotinamide] | 222 to 223 °C |
| NS(=O)(=O)N1CCC(CNC(=O)c2cccnc2Oc2ccc(F)cc2)CC1 [Example 194, 2-(4-Fluoro-phenoxy)-N-(1-sulfamoyl-piperidin-4-ylmethyl)-nicotinamide] | 225 to 226 °C |
| O=C(NCC1CCC=CO1)c1cccnc1Oc1ccc(F)cc1 (stereo not shown) [Example 195, N-(3,4-Dihydro-2H-pyran-2-ylmethyl)-2-(4-fluoro-phenoxy)-nicotinamide] | 55 to 57 °C |
| N#Cc1cccc(Oc2ncccc2C(=O)NCc2ccc(S(N)(=O)=O)cc2)c1 [Example 196, 2-(3-Cyano-phenoxy)-N-(4-sulfamoyl-benzyl)-nicotinamide] | 179 to 180 °C |
| COc1cccc(Oc2ncccc2C(=O)NCc2ccc(S(N)(=O)=O)cc2)c1 [Example 200, 2-(3-Methoxy-phenoxy)-N-(4-sulfamoyl-benzyl)-nicotinamide] | 142 to 143 °C |
| COc1cccc(Oc2ncccc2C(=O)NCc2ccc(C(C)(C)O)cc2)c1 [Example 201, N-[4-(1-Hydroxy-1-methyl-ethyl)-benzyl]-2-(3-methoxy-phenoxy)-nicotinamide] | 69 to 71 °C |
| CC(C)(O)c1ccc(CNC(=O)c2cccnc2Oc2cccc(F)c2)cc1 [Example 202, 2-(3-Fluoro-phenoxy)-N-[4-(1-hydroxy-1-methyl-ethyl)-benzyl]-nicotinamide] | 106 to 108 °C |
| CC(C)(O)c1ccc(CC(=O)Nc2cccnc2Oc2ccc(F)cc2)cc1 [Example 203, N-[2-(4-Fluoro-phenoxy)-pyridin-3-yl]-2-[4-(1-hydroxy-1-methyl-ethyl)-phenyl]-acetamide] | 135 to 137 °C |
| CSc1cccc(Oc2ncccc2C(=O)NCc2ccc(C(C)(C)O)cc2)c1 [Example 206, N-[4-(1-Hydroxy-1-methyl-ethyl)-benzyl]-2-(3-methylsulfanyl-phenoxy)-nicotinamide] | 107 to 109 °C |
| CC(C)(O)c1ccc(CNC(=O)c2cccnc2Oc2cccc(S(C)(=O)=O)c2)cc1 [Example 207, N-[4-(1-Hydroxy-1-methyl-ethyl)-benzyl]-2-(3-methanesulfonyl-phenoxy)-nicotinamide] | 51 to 53 °C |
| O=C(NCc1ccncc1)c1cccnc1Oc1cccnc1 [Example 208, N-Pyridin4-ylmethyl-2-(pyridin-3-yloxy)-nicotinamide] | 142 to 144 °C |
| Cc1cnc(CNC(=O)c2cccnc2Oc2ccc(F)cc2)cn1 [Example 209, 2-(4-Fluoro-phenoxy)-N-(5-methyl-pyrazin-2-ylmethyl)-nicotinamide] | 159 °C |
| CC(C)(O)c1ccc(CC(=O)Nc2cccnc2Oc2cccnc2)cc1 [Example 211, 2-[4-(1-Hydroxy-1-methyl-ethyl)-phenyl]-N-[2-(pyridin-3-yloxy)-pyridin-3-yl]-acetamide] | 122 to 124 °C |
| CC(=O)c1cccc(Oc2ncccc2NC(=O)Cc2ccc(C(C)(C)O)cc2)c1 [Example 213, N-[2-(3-Acetyl-phenoxy)-pyridin-3-yl]-2-[4-(1-hydroxy-1-methyl-ethyl)-phenyl]-acetamide] | 85 to 87 °C |
| CC(C)(O)C1CCC(CNC(=O)c2cccnc2Oc2cccc(C#N)c2)CC1 (stereo not shown) [Example 214, 2-(3-Cyano-phenoxy)-N-[4-(1-hydroxy-1-methyl-ethyl)-cyclohexylmethyl]-nicotinamide] | 129 to 130 °C |

| Compound | melting point |
| --- | --- |
| O=C1COC(CNC(=O)c2cccnc2Oc2ccc(F)cc2)CN1 (stereo not shown) [Example 216, 2-(4-Fluoro-phenoxy)-N-(5-oxo-morpholin-2-ylmethyl)-nicotinamide] | 157 to 159 °C |
| CC(C)(O)c1ccc(CC(=O)Nc2cccnc2Oc2cccc(C#N)c2)cc1 [Example 218, N-[2-(3-Cyano-phenoxy)-pyridin-3-yl]-2-[4-(1-hydroxy-1methyl-ethyl)-phenyl]-acetamide] | 97 to 99 °C |
| O=C(NCc1ccc(C(=O)C(F)(F)F)cc1)c1cccnc1Oc1cccnc1 [Example 219, 2-(Pyridin-3-yloxy)-N-(4-trifluoroacetyl-benzyl)-nicotinamide] | 134 to 136 °C |
| CC(=O)c1cccc(Oc2ncccc2C(=O)NCc2ccncc2)c1 [Example 220, 2-(3-Acetyl-phenoxy)-N-pyridin-4-ylmethyl-nicotinamide] | 148 to 150 °C |
| CC(=O)c1cccc(Oc2ncccc2C(=O)NCc2ccc(C(C)(C)O)cc2)c1 [Example 221, 2-(3-Acetyl-phenoxy)-N-[4-(1-hydroxy-1-methyl-ethyl)-benzyl]-nicotinamide] | 52 to 54 °C |
| CC(=O)c1cccc(Oc2ncccc2C(=O)NCc2ccccc2Cl)c1 [Example 222, 2-(3-Acetyl-phenoxy)-N-(2-chloro-benzyl)-nicotinamide] | 140 to 142 °C |
| CC(=O)c1cccc(Oc2ncccc2C(=O)NCc2ccc(C(C)O)cc2)c1 (stereo not shown) [Example 223, 2-(3-Acetyl-phenoxy)-N-[4-(1-hydroxy-ethyl)-benzyl]-nicotinamide] | 105 to 107 °C |
| CC(=O)c1cccc(Oc2ncccc2C(=O)NCc2ccc(S(N)(=O)=O)cc2)c1 [Example 224, 2-(3-Acetyl-phenoxy)-N-(4-sulfamoyl-benzyl)-nicotinamide] | 162 to 164 °C |
| CC(=O)C1CCC(CNC(=O)c2cccnc2Oc2ccc(F)cc2)CC1 (stereo not shown) [Example 229, N-(4-Acetyl-cyclohexylmethyl)-2-(4-fluoro-phenoxy)-nicotinamide] | 110 to 111 °C |
| CC(C)(O)c1ccc(CNC(=O)c2cccnc2Oc2ccc(F)cc2F)cc1 [Example 230, 2-(2,4-Difluoro-phenoxy)-N-[4-(1-hydroxy-1-methyl-ethyl)-benzyl]-nicotinamide] | 92 to 94 °C |
| CC(C)(O)c1ccc(CNC(=O)c2cccnc2Oc2ccc(F)c(F)c2)cc1 [Example 231, 2-(3,4-Difluoro-phenoxy)-N-[4-(1-hydroxy-1-methyl-ethyl)-benzyl]-nicotinamide] | 98 to 100 °C |
| O=C(NCc1ccc(C2(O)CCC2)cc1)c1cccnc1Oc1ccc(F)c(F)c1 [Example 232, 2-(3,4-Difluoro-phenoxy)-N-[4-(1-hydroxy-cyclobutyl)-benzyl]-nicotinamide] | 74 to 76 °C |
| CC(=O)c1cccc(Oc2ncccc2C(=O)NCc2ccc(C(C)(C)O)cc2Cl)c1 [Example 235, 2-(3-Acetyl-phenoxy)-N-[2-chloro-4-(1-hydroxy-1-methyl-ethyl)-benzyl]-nicotinamide] | 102 to 104 °C |
| CC(=O)c1ccc(Oc2ncccc2C(=O)NCc2ccc(C(C)(C)O)cc2)cc1 [Example 236, 2-(4-Acetyl-phenoxy)-N-[4-(1-hydroxy-1-methyl-ethyl)-benzyl]-nicotinamide] | 95 to 97 °C |
| CC(=O)c1cccc(Oc2ncccc2C(=O)NCc2ccc(C(C)(C)O)cc2F)c1 [Example 237, 2-(3-Acetyl-phenoxy)-N-[2-fluoro-4-(1-hydroxy-1-methyl-ethyl)-benzyl]nicotinamide] | 68 to 70 °C |
| CC(C)(O)c1ccc(CNC(=O)c2cccnc2Oc2cc(F)cc(F)c2)cc1 [Example 238, 2-(3,5-Difluoro-phenoxy)-N-[4-(1-hydroxy-1-methyl-ethyl)-benzyl]-nicotinamide] | 68 to 70 °C |
| CC(C)(O)[C@H]1CC[C@H](CNC(=O)c2cccnc2Oc2ccc(F)cc2F)CC1 [Example 239, trans-2-(2,4-Difluoro-phenoxy)-N-[4-(1-hydroxy-1-methyl-ethyl)-cyclohexylmethyl]-nicotinamide] | 92 to 94 °C |
| CC(C)(O)[C@H]1CC[C@H](CNC(=O)c2cccnc2Oc2ccc(F)c(F)c2)CC1 [Example 240, trans-2-(3,4-Difluoro-phenoxy)-N-[4-(1-hydroxy-1-methyl-ethyl)-cyclohexylmethyl]-nicotinamide] | 80 to 82 °C |
| CC(=O)c1cccc(Oc2ncccc2C(=O)NCC2CCC(C(C)(C)O)CC2)c1 (stereo not shown) [Example 242, 2-(3-Acetyl-phenoxy)-N-[4-(1-hydroxy-1-methyl-ethyl)-cyclohexylmethyl]-nicotinamide] | 105 to 107 °C |
| CC(C)(O)c1ccc(CNC(=O)c2cccnc2Oc2ccc(F)c(C#N)c2)cc1 [Example 243, 2-(3-Cyano-4-fluoro-phenoxy)-N-[4-(1-hydroxy-1-methyl-ethyl)-benzyl]-nicotinamide] | 147 to 149 °C |
| CC(C)(O)c1ccc(CNC(=O)c2cccnc2Oc2ccc(F)c(C#N)c2)c(Cl)c1 [Example 244, N-[2-Chloro-4-(1-hydroxy-1-methyl-ethyl)-benzyl]-2-(3-cyano-4-fluoro-phenoxy)-nicotinamide] | 151 to 153 °C |
